Format in all cases: cell-based
The test system of experiment [1] is OCI-LY10. Nature of the experiment: Anti proliferative activity in haematological cancer cell lines (CellTiter Glo), OCI-LY10. Conditions: Homo sapiens, OCI-LY10, ABC-DLBCL, 72 hours incubation. As to the method:
(§1) After 24 hours, selected compound of the present invention was added to cells from 10 mM stocks made in DMSO (Sigma Cat no. D2650). CTG reading was taken on the day of compound addition which was labelled as Day 0 reading. Each concentration of compound was tested in triplicate with DMSO concentration not exceeding a final percentage of 0.1 in the cells. After 3 days (72 hours) of incubation assay terminated using 100 μl of CellTiter Glo® reagent (Promega, Cat. no G7572). CellTiter Glo® Luminescent reagent determines the number of viable cells based on quantitation of ATP present which is an indicator of cell number and metabolically activity. Luminescence readings were taken in Victor-3 instrument. The data was analysed using graph pad prism software. Positive control (100% survival)=Cells in complete media with […]; Negative control/blank (0% survival)=Media alone containing 0.1% DMSO.
On the technique in general: In ATP-based viability assays light output follows the ATP content of the culture.

In experiment [2] the test system is Pfeiffer. The experiment in a line: Anti proliferative activity in haematological cancer cell lines (CellTiter Glo), Pfeiffer. Particulars: Homo sapiens, GCB-DLBCL, 72 hours incubation. As to the method: as §1
The test system of experiment [3] is OCI-LY3 cells. Nature of the experiment: Anti proliferative activity in haematological cancer cell lines (CellTiter Glo), OCI-LY3. As to the method:
as §1

Experiment [4] has as its system CUTLL-1. Nature of the experiment: Anti proliferative activity in haematological cancer cell lines (CellTiter Glo), CUTLL-1. The method, then:
as §1

For experiment [5], the system named is H929. The experiment in a line: Anti proliferative activity in haematological cancer cell lines (CellTiter Glo), H929. As to the method: as §1
Experiment [6] concerns TMD8* (wt btk). Nature of the experiment: Anti proliferative activity in haematological cancer cell lines (CellTiter Glo), TMD8. Particulars: Homo sapiens, ABC-DLBCL, 72 hours incubation. As to the method:
as §1

The subject of experiment [7] is HBL-1. Nature of the experiment: Anti proliferative activity in haematological cancer cell lines (CellTiter Glo), HBL-1. Conditions: HBL1, HBL-1, ABC-DLBCL, 72 hours incubation. As to the method:
as §1

The subject of experiment [8] is DOHH-2. The experiment in a line: Anti proliferative activity in haematological cancer cell lines (CellTiter Glo), DOHH-2. Particulars: Homo sapiens, DOHH-2, Follicular lymphoma, 72 hours incubation. As to the method: as §1
The test system of experiment [9] is CCRF-CEM. The experiment in a line: Anti proliferative activity in haematological cancer cell lines (CellTiter Glo), CCRF-CEM. The method, then:
as §1

Structures are written as SMILES.

Regarding `C=CC(=O)N1CCN(C(=O)NC2(C#Cc3ccc(Cl)c(Cl)c3)CC2)CC1` [Cpd 23], the IC50 was found to be 10 nM in experiment [1]; 870 nM in [2]; 20 nM in [3] (Homo sapiens, OCI-LY3, ABC-DLBCL, 72 hours incubation, CellTiter Glo); 50 nM in [4] (CUTLL1, CUTLL-1, T-cell acute lymphoblastic leukemia, 72 hours incubation, CellTiter Glo); 50 nM in experiment [5] (Homo sapiens, NCI-H929, H929, Multiple myeloma, 72 hours incubation, CellTiter Glo); 10 nM in [6]. In addition, the IC50 was found to be 350 nM in experiment [7]; 20 nM in experiment [8]; 280 nM in experiment [9] (Homo sapiens, CCRF-CEM, T-cell acute lymphoblastic leukemia, 72 hours incubation, CellTiter Glo). In addition, the “anti-proliferative activity (in words)” value was “potent anti-proliferative activity” in experiment [3] (OCI-LY3 (ABC-DLBCL), activating mutation in CARD11); “potent anti-proliferative activity” in experiment [4] (CUTLL-1 (T-cell acute lymphoblastic leukemia)); “potent anti-proliferative activity” in [5] (H929 (multiple myeloma)); “potent anti-proliferative activity” in experiment [9] (CCRF-CEM (T-cell acute lymphoblastic leukemia)).

The term IC50 denotes the concentration at which inhibition is half-maximal. A high value points to a need for much substance.

Source of the values: patent publication US20230414605A1, “Method of Treating Cancer Using FABP5 Inhibitors” (Aurigene Oncology Limited, priority 2020, published 2023).
